Assays:
Test in all cases: Kinase selectivity, DiscoverX scanMAX Kinase assay panel (% control)
Format in all cases: binding
[1] = biological target: T1, kinases of the scanMAX Kinase assay panel (Homo sapiens, UniProt P0C264); conditions: kinase SgK110; 1 uM in DMSO
T1 construct: purchased DiscoverX Co. (contract measurement) scanMAX Kinase assay panel
T1 sequence (P0C264 1-359): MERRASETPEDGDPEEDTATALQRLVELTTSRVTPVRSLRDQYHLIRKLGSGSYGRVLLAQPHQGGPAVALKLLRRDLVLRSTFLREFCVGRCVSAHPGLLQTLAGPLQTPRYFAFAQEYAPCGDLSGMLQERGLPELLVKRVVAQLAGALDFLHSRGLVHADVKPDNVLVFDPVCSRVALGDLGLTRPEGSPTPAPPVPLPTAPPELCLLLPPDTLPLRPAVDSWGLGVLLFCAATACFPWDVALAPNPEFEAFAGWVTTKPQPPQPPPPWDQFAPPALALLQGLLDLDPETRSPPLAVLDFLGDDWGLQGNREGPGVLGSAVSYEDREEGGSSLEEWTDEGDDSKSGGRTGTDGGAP
How it was run: (§1)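 A 1 uM DMSO solution of compound was applied across the panel kinases, and results were expressed as % control relative to DMSO (100%) and a positive control (0%).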

[2] = biological target: T2, kinases of the scanMAX Kinase assay panel (Homo sapiens, UniProt P15056, V600E); conditions: BRAF(V600E); 1 uM
T2 construct: purchased DiscoverX Co. (contract measurement) scanMAX Kinase assay panel
How it was run: as §1

[3] = biological target: T3, kinases of the scanMAX Kinase assay panel (Homo sapiens, UniProt P16591); conditions: FER; 1 uM
T3 construct: purchased DiscoverX Co. (contract measurement) scanMAX Kinase assay panel
How it was run: as §1

[4] = biological target: T4, kinases of the scanMAX Kinase assay panel (Homo sapiens, UniProt Q13546); conditions: kinase RIPK1; 1 uM in DMSO
T4 construct: purchased DiscoverX Co. (contract measurement) scanMAX Kinase assay panel
T4 sequence (Q13546 1-671): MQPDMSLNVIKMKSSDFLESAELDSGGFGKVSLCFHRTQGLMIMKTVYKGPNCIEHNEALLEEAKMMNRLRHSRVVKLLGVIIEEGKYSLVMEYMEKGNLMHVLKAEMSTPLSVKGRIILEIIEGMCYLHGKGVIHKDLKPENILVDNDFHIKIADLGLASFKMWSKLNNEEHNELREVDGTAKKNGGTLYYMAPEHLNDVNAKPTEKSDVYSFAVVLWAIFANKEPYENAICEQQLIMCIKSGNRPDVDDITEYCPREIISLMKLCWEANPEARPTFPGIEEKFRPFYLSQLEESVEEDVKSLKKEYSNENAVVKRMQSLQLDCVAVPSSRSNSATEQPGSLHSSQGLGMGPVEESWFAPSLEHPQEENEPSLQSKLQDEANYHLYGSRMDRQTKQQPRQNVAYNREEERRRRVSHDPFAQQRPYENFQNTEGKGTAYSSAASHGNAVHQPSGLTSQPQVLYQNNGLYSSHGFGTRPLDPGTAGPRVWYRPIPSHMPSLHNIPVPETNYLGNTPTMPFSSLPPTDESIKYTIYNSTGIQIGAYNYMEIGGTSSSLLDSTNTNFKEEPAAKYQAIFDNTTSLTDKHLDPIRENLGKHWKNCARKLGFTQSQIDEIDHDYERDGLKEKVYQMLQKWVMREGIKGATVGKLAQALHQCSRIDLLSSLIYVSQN
How it was run: as §1

[5] = biological target: T5, kinases of the scanMAX Kinase assay panel (Homo sapiens, UniProt Q16288); conditions: kinase TRKC; 1 uM in DMSO
T5 construct: purchased DiscoverX Co. (contract measurement) scanMAX Kinase assay panel
How it was run: as §1

[6] = biological target: T6, kinases of the scanMAX Kinase assay panel (Homo sapiens, UniProt Q9NRM7); conditions: LATS2; 1 uM
T6 construct: purchased DiscoverX Co. (contract measurement) scanMAX Kinase assay panel
T6 sequence (Q9NRM7 1-1088): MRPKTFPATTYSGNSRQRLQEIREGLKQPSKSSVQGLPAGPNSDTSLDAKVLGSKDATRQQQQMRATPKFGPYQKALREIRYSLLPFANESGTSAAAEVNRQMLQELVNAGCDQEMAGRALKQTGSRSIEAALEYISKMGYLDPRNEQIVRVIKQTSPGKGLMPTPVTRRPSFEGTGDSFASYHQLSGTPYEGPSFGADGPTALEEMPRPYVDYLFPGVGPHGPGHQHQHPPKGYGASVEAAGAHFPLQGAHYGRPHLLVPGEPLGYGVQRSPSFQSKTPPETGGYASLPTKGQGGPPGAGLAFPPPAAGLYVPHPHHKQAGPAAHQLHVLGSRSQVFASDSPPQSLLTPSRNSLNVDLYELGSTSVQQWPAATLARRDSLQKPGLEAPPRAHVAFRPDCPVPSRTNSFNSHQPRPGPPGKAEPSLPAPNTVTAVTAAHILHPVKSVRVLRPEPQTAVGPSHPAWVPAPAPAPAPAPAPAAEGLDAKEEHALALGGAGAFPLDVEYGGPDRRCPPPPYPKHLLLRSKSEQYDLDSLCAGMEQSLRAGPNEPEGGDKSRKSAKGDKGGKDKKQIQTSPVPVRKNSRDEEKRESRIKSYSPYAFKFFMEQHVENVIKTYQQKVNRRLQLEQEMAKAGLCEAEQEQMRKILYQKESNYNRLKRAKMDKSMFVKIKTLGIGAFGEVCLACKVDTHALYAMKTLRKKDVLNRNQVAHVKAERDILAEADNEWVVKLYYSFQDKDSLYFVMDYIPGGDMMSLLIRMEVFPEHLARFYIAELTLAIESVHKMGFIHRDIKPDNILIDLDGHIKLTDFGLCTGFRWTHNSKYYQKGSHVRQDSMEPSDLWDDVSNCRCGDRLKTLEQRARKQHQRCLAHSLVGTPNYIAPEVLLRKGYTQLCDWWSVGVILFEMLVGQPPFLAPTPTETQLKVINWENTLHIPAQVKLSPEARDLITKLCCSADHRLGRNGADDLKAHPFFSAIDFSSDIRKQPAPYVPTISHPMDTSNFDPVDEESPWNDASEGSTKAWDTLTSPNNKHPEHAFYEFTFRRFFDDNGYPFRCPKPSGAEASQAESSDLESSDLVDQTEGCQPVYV
How it was run: as §1

[7] = biological target: T7, kinases of the scanMAX Kinase assay panel (Homo sapiens, UniProt Q9UM73, C1156Y); conditions: ALK(C1156Y); 1 uM
T7 construct: purchased DiscoverX Co. (contract measurement) scanMAX Kinase assay panel
How it was run: as §1

T2 sequence (P15056 whole entry V600E): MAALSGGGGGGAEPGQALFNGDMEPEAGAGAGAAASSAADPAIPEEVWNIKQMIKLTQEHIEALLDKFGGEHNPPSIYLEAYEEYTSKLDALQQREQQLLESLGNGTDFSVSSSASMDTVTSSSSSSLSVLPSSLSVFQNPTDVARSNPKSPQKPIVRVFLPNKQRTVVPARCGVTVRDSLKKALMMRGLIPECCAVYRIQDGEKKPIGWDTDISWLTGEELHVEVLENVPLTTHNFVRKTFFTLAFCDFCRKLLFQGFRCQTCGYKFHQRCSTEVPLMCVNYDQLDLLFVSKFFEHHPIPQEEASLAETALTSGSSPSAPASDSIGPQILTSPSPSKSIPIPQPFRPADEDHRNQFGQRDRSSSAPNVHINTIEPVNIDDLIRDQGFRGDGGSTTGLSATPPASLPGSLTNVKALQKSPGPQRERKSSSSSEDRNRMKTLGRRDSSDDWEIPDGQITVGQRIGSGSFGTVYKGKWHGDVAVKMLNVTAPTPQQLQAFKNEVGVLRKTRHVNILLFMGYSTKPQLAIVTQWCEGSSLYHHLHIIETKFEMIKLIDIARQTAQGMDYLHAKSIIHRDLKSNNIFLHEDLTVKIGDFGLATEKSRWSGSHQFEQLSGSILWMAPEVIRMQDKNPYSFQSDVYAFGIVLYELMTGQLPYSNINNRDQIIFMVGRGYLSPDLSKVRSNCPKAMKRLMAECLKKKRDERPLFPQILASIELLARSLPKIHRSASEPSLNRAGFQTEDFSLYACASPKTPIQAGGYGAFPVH
T3 sequence (P16591 whole entry): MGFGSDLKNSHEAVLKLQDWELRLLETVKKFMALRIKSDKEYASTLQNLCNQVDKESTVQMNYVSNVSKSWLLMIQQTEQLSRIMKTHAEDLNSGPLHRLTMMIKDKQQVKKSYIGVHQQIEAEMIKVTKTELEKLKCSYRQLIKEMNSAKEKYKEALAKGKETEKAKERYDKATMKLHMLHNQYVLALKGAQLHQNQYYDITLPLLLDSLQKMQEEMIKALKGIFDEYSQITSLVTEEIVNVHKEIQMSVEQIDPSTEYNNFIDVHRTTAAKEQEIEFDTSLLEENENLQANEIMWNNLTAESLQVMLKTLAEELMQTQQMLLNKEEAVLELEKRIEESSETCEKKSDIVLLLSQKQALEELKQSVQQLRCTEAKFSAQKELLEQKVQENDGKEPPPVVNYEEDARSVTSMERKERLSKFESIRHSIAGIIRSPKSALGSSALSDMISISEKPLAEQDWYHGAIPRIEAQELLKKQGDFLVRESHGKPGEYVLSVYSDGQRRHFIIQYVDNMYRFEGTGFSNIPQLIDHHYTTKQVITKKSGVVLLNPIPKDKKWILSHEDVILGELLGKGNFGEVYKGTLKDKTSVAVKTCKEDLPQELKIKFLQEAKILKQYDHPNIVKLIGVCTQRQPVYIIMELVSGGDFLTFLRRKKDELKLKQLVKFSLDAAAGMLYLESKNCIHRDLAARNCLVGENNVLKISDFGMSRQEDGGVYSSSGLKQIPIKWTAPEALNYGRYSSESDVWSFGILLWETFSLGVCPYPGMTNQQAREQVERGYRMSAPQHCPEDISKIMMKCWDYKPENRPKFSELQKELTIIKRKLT
T5 sequence (Q16288 32-839): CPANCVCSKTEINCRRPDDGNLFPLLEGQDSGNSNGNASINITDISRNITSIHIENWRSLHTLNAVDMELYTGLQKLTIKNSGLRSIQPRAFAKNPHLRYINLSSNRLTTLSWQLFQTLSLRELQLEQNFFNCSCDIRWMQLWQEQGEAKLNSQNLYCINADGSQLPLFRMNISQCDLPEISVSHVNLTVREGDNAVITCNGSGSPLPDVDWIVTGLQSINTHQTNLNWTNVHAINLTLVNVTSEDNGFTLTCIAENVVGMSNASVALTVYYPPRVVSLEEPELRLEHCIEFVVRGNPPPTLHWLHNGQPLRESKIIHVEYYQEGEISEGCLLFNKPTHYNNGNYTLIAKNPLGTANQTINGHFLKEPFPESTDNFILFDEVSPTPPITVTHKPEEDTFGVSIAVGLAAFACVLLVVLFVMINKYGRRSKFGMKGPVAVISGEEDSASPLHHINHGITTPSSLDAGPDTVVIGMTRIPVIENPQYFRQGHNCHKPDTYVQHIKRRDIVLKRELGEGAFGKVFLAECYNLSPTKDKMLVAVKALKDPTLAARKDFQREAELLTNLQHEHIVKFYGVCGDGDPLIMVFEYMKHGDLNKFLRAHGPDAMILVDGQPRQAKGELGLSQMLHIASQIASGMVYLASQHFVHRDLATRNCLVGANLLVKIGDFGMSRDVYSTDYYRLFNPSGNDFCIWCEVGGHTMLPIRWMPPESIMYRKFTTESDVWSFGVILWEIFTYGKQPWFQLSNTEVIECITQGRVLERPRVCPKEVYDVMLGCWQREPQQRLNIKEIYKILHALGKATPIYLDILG
T7 sequence (Q9UM73 19-1620 C1156Y): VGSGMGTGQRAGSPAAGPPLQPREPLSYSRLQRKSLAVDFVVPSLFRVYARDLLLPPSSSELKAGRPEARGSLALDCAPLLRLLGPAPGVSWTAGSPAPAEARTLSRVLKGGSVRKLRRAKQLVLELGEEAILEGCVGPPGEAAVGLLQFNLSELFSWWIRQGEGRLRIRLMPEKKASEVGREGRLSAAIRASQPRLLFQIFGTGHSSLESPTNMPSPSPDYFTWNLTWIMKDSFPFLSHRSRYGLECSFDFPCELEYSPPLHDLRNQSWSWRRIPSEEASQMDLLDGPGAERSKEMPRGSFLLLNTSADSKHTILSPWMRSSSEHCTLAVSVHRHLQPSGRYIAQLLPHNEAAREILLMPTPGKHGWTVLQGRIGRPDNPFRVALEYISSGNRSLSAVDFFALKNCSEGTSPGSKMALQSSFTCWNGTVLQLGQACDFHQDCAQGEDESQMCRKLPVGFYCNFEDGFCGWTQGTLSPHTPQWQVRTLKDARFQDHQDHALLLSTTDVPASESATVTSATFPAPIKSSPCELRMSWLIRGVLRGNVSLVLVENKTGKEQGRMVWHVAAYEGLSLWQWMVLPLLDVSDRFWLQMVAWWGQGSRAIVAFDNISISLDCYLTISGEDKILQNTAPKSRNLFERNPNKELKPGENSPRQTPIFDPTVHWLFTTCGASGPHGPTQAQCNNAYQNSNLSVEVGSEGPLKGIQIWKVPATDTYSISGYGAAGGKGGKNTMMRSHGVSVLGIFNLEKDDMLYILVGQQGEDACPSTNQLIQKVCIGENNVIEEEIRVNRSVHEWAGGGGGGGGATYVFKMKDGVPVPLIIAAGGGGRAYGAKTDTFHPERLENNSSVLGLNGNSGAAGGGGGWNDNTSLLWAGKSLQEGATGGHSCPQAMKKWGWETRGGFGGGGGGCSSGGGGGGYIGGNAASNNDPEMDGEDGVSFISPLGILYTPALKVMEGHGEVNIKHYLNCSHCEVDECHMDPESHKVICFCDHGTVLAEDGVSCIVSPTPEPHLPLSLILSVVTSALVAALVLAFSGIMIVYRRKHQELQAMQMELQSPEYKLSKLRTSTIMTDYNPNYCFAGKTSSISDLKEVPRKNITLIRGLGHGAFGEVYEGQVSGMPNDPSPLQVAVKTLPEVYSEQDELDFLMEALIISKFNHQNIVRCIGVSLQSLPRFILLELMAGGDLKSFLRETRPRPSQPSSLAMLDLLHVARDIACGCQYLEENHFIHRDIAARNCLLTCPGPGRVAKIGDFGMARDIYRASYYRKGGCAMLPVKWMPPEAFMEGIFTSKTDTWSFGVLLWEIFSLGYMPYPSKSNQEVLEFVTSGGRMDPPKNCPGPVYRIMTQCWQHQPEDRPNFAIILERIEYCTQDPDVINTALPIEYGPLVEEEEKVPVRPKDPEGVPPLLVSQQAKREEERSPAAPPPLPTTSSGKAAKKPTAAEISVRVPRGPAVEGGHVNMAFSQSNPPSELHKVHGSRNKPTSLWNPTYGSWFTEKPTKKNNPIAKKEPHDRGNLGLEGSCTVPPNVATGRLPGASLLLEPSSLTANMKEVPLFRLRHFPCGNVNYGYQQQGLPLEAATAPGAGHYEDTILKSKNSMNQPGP

SMILES	remaining binding at 1 µM [1] [%]	remaining binding at 1 µM [2] [%]	remaining binding at 1 µM [3] [%]	remaining binding at 1 µM [4] [%]	remaining binding at 1 µM [5] [%]	remaining binding at 1 µM [6] [%]	remaining binding at 1 µM [7] [%]
CCNc1nc(Nc2ccc(C(=O)N3CCC(N4CCOCC4)CC3)cc2OC)nc2[nH]cc(C(F)(F)F)c12 [Example 104, (4-((4-(ethylamino)-5-(trifluoromethyl)-7H-pyrrolo[2,3-d]pyrimidine-2-yl)amino)-3-methoxyphenyl)(4-morpholinopiperidine-1-yl)methanone]	100	100	3	100	100	87	16
CC1(Nc2nc(Nc3cnn([C@H]4CCN(C5COC5)C[C@@H]4F)c3Cl)nc3[nH]cc(C#N)c23)CC1 [Example 52, 2-((5-chloro-1-((3S,4S)-3-fluoro-1-(oxetane-3-yl)piperidine-4-yl)-1H-pyrazole-4-yl)amino)((1-methylcyclopropyl)amino)-7H-pyrrolo[2,3-d]pyrimidine-5-carbonitrile]	32	100	0.25	14	30	11	0.8
CNc1nc(Nc2ccc(C(=O)N3CCOCC3)cc2OC)nc2[nH]cc(C#N)c12 [Example 1, 2-((2-methoxy-4-(morpholine-4-carbonyl)phenyl)amino)-4-(methylamino)-7H-pyrrolo[2,3-d]pyrimidine-5-carbonitrile]	100	95	15	94	60	61	9.3

— US11208412B2 (DAEGU-GYEONGBUK MEDICAL INNOVATION FOUNDATION, priority 2017, dated 2021)
